Measured values from patent publication US20220248678A1, “HERBICIDAL COMPOUNDS” (SYNGENTA CROP PROTECTION AG, priority 2019, published 2022).

How the values were obtained:
Test in all cases: Post-emergence efficacy, glasshouse
Type in all cases: in vivo
Settings in all cases: after 13 days, 100=total damage to plant, 0=no damage to plant
[1] = tested on: Amaranthus palmeri (AMAPA)
Method: (§1) Seeds of a variety of test species were shown in standard soil in pots. After cultivation for 14 days (post-emergence) under controlled conditions in a glasshouse (at 24/16° C., day/night; 14 hours light; 65% humidity), the plants were sprayed with an aqueous spray solution derived from the dissolution of the technical active ingredient for each of compounds 1 to 26 from Table A above, in a small amount of acetone and a special solvent and emulsifier mixture referred to as IF50 (11.12% Emulsogen EL360 TM+44.44% N-methylpyrrolidone+44.44% Dowanol DPM glycol ether), to create a 50 g/I solution which was then diluted to required concentration using 0.25% or 1% Empicol ESC70 (Sodium lauryl ether sulphate)+1% ammonium sulphate in water as diluent. These spray test compositions are described as composition numbers C1 to C26, with the numerical value corresponding to the compound number from Table A.
(§2) The test plants were then grown in a glasshouse under controlled conditions (at 24/16° C., day/night; 14 hours light; 65% humidity) and watered twice daily. After 13 days the test was evaluated (100=total damage to plant; 0=no damage to plant).
(§3) Ipomoea hederacea (IPOHE), Euphorbia heterophylla (EPHHL), Chenopodium album (CHEAL), Amaranthus palmeri (AMAPA), Lolium perenne (LOLPE), Digitaria sanguinalis (DIGSA), Eleusine indica (ELEIN), Echinochloa crus-galli (ECHCG), Setaria faberi (SETFA)

[2] = tested on: Chenopodium album (CHEAL)
Method: as §1, §2, §3

[3] = tested on: Digitaria sanguinalis (DIGSA)
Method: as §1, §2, §3

[4] = tested on: Echinochloa crus-galli (ECHCG)
Method: as §1, §2, §3

Eleusine indica (ELEIN) = tested on: Eleusine indica (ELEIN)
Method: as §1, §2, §3

[5] = tested on: Euphorbia heterophylla (EPHHL)
Method: as §1, §2, §3

[6] = tested on: Ipomoea hederacea (IPOHE)
Method: as §1, §2, §3

Lolium perenne (LOLPE) = tested on: Lolium perenne (LOLPE)
Method: as §1, §2, §3

Setaria faberi (SETFA) = tested on: Setaria faberi (SETFA)
Method: as §1, §2, §3

Compound | Control of weed species AMAPA ([1]; 1000 g/Ha) | Control of weed species CHEAL ([2]; 1000 g/Ha) | Control of weed species DIGSA ([3]; 1000 g/Ha) | Control of weed species ECHCG ([4]; 1000 g/Ha) | Control of weed species ELEIN (Eleusine indica (ELEIN); 1000 g/Ha) | Control of weed species EPHHL ([5]; 1000 g/Ha) | Control of weed species IPOHE ([6]; 1000 g/Ha) | Control of weed species LOLPE (Lolium perenne (LOLPE); 1000 g/Ha) | Control of weed species SETFA (Setaria faberi (SETFA); 1000 g/Ha) | Control of weed species AMAPA ([1]; 500 g/Ha) | Control of weed species CHEAL ([2]; 500 g/Ha) | Control of weed species DIGSA ([3]; 500 g/Ha) | Control of weed species ECHCG ([4]; 500 g/Ha) | Control of weed species ELEIN (Eleusine indica (ELEIN); 500 g/Ha) | Control of weed species EPHHL ([5]; 500 g/Ha) | Control of weed species IPOHE ([6]; 500 g/Ha) | Control of weed species LOLPE (Lolium perenne (LOLPE); 500 g/Ha) | Control of weed species SETFA (Setaria faberi (SETFA); 500 g/Ha)
CCOP(=O)(O)c1c[n+](C)nc2ccccc12.O=C([O-])C(F)(F)F [Composition C1] | 90 | 100 | 90 | 70 | 90 | 100 | 100 | 60 | 80 |  |  |  |  |  |  |  |  | 
CCCCOP(=O)(O)c1c[n+](C)nc2ccccc12.O=C([O-])C(F)(F)F [Composition C2] |  |  |  |  |  |  |  |  |  | 60 | 70 | 60 | 30 | 40 | 100 | 80 | 30 | 60
CCOP(=O)(O)c1c[n+](C)nc2ccccc12.[Cl-] [Composition C3] | 90 | 100 | 100 | 70 | 90 | 100 | 100 | 50 | 90 |  |  |  |  |  |  |  |  | 
C#CCOP(=O)([O-])c1c[n+](C)nc2ccccc12 [Composition C4] | 100 | 100 | 100 | 90 | 100 | 100 | 100 | 90 | 100 |  |  |  |  |  |  |  |  | 
C=CCOP(=O)([O-])c1c[n+](C)nc2ccccc12 [Composition C5] |  |  |  |  |  |  |  |  |  | 90 | 100 | 90 | 90 | 100 | 90 | 70 | 60 | 80
C[n+]1cc(P(=O)([O-])OCC(F)(F)F)c2ccccc2n1 [Composition C6] | 100 | 100 | 100 | 100 | 100 | 100 | 100 | 80 | 90 |  |  |  |  |  |  |  |  | 
C[n+]1cc(P(=O)([O-])OCC2CC2)c2ccccc2n1 [Composition C7] | 90 | 90 | 100 | 80 | 100 | 100 | 100 | 60 | 90 |  |  |  |  |  |  |  |  | 
CC(C)OP(=O)([O-])c1c[n+](C)nc2ccccc12 [Composition C8] | 100 | 100 | 100 | 100 | 100 | 100 | 100 | 50 | 90 |  |  |  |  |  |  |  |  | 
COP(=O)([O-])c1c(C)[n+](C)nc2ccccc12 [Composition C9] | 100 | 90 | 80 | 40 | 80 | 50 | 90 | 50 | 70 |  |  |  |  |  |  |  |  | 
COCCOP(=O)([O-])c1c[n+](C)nc2ccccc12 [Composition C10] | 100 | 100 | 90 | 70 | 100 | 100 | 80 | 20 | 100 |  |  |  |  |  |  |  |  | 
C[n+]1cc(P(=O)([O-])Oc2ccccc2)c2ccccc2n1 [Composition C11] | 100 | 70 | 70 | 20 | 80 | 60 | 70 | 30 | 50 |  |  |  |  |  |  |  |  | 
CCCCOP(=O)([O-])c1c[n+](C)nc2ccccc12 [Composition C12] |  |  |  |  |  |  |  |  |  | 100 | 100 | 70 | 70 | 100 | 100 | 100 | 40 | 70
COP(=O)([O-])c1c[n+](C)nc2ccc(C)cc12 [Composition C13] |  |  |  |  |  |  |  |  |  | 100 | 100 | 100 | 90 | 100 | 100 | 70 | 30 | 100
COP(=O)([O-])c1c[n+](C)nc2cc(C)ccc12 [Composition C14] | 100 | 100 | 80 | 70 | 100 | 100 | 100 | 60 | 90 |  |  |  |  |  |  |  |  | 
COP(=O)([O-])c1c[n+](C)nc2c(C)cccc12 [Composition C15] | 40 | 50 | 70 | 50 | 80 | 100 | 20 | 20 | 50 |  |  |  |  |  |  |  |  | 
COc1ccc2n[n+](C)cc(P(=O)([O-])OC)c2c1 [Composition C16] | 100 | 90 | 80 | 90 | 100 | 90 | 70 | 50 | 80 |  |  |  |  |  |  |  |  | 
COc1ccc2c(P(=O)([O-])OC)c[n+](C)nc2c1 [Composition C17] | 10 | 10 | 10 | 10 | 10 | 20 | 10 | 0 | 10 |  |  |  |  |  |  |  |  | 
